# Measurements as given in US20030166201A1, “Selection systems for genetically modified cells” (priority 2001, published 2003).
# Where two headings read alike, the source gives them in different places.
# Tests used:
# [1] = target: T1, DHODH (Homo sapiens, UniProt Q02127); details: cited from earlier work; for Km: substrate/cosubstrate
# Target sequence in this assay (Q02127 whole entry): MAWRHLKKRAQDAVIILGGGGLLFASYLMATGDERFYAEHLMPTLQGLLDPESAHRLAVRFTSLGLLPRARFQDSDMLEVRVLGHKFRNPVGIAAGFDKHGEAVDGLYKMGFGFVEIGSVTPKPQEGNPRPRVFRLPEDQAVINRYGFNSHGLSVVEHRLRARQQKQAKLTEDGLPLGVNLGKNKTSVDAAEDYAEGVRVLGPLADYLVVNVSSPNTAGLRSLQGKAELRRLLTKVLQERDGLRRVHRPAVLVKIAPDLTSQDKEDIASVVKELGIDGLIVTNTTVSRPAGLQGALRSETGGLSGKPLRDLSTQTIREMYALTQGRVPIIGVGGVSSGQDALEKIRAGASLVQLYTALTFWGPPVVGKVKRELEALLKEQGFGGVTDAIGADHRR
# [2] = target: T1, DHODH; details: cited from earlier work
# Target sequence in this assay (Q02127 whole entry, species assumed): as the sequence (Q02127 whole entry) above
# [3] = daily dosage of 2-3 g MMF, adult transplant recipients; cited from earlier work
# [4] = system: Jurkat T cells; test: Proliferation (3H-Tdr incorporation) of untransfected or mock-transfected Jurkat T cells; type: cell-based, human
# Method: (§1) Jurkat T cells (Human CD4+ T cell line from American Type Culture Collection, ATCC Number: TIB-152) were passaged in T cell culture media containing 0, 100, 125, 150, 175, and 200 μg/ml hygromycin. Unless otherwise stated, T cell culture media was prepared by addition of 13.7 ml HEPES (Irvine Scientific catalog No. 9319), 5 ml L-Glutamine (BioWhittaker Catalog No. 17-605C) and 57 ml heat inactivated fetal calf serum (Hyclone catalog No. SH30070.03) to 500 ml RPMI 1640 medium without Phenol Red pH indicator (Irvine Scientific catalog No. 9160).
# To assess proliferation by ^3H-Tdr incorporation, a volume of cell suspension containing 5×10^6 cells was diluted to 10 ml and incubated at 37° C. and 5% CO2. On days 8, 10, 12, and 15, volumes of cell suspension yielding 0.6×10^6 cells were placed in 15 ml conical tubes and centrifuged at 1100 rpm for 8 minutes at room temperature. Supernatant was removed and cells were resuspended in […] T cell media. Aliquots of 0.1 ml each were dispensed into wells of a 96 well round bottom plate. Six wells were used for each clone. ^3H-Tdr (ICN catalog No. 24041) was diluted 1:20 with T cell media. Each well was pulsed by adding 50 μl/well (lpCi ^3H-Tdr/well) dilute ^3H-Tdr and incubating for 4 hours. Wells were harvested onto filter paper using a PhD Cell Harvester and CPM were counted in a liquid scintillation counter by standard scintillation procedures.
# (§2) The amount of cell proliferation and viability were measured by the methods described in Example 1 at 72, 96, and 144 hours thereafter. OKT3/rhlL-2-activated PBMCs from healthy donors were passaged under the above conditions, and the amount of cell proliferation measured at the same time intervals.
# Jurkat T cells (ATCC Number: TIB-152) were grown in T cell culture media in log phase and then subjected to electroporation by the method described in Example 1 in the presence of plasmid DNA vector IMPDH(T333I/S351Y)/pMG as described above. As a control (“mock”), Jurkat T cells were mock-transfected by electroporation with plasmid-free buffer.
# As a control, mock-transfected Jurkat T cells were passaged under the same conditions.
# As a control, mock-transfected Jurkat T cells were cultured under the same conditions.
# [5] = system: OKT3/rhIL-2-activated PBMCs; test: Proliferation (3H-Tdr incorporation) of OKT3/rhIL-2-activated PBMCs; type: cell-based, human; details: MPA 1×10^−7M to 1×10^−4M, 72, 96, 144 hours
# Method: (§3) Five hundred million freshly isolated, healthy donor peripheral blood mononuclear cells (PBMCs) were diluted to a volume of 500 ml with T cell culture media. PBMCs were activated with 15 λ anti-CD3 monoclonal antibody Orthoclone OKT3 (Ortho Biotech Inc.). Ten 50 ml aliquots of PBMC/OKT3 were placed in separate flasks. To each PBMC/OKT3 flask, 50 μL of stock 50 U/μl recombinant human IL-2 (Chiron catalog No. 53905-991-01) was added to stimulate proliferation. OKT3/rhIL-2-activated PBMCs were passaged under the same conditions as described for the Jurkat T cells. The amount of Jurkat T cell and PBMC proliferation was determined by measuring DNA incorporation of ^3H-Tdr 8, 10, 12, and 15 days thereafter.
# To assess proliferation by ^3H-Tdr incorporation, a volume of cell suspension containing 5×10^6 cells was diluted to 10 ml and incubated at 37° C. and 5% CO2. […] Wells were harvested onto filter paper using a PhD Cell Harvester and CPM were counted in a liquid scintillation counter by standard scintillation procedures.
# as §2
# [6] = system: Jurkat T cells transfected with plasmid IMPDH(T333I/S351Y)/pMG; test: Viability (Trypan Blue) of Jurkat T cells transfected with IMPDH(T333I/S351Y)/pMG; type: cell-based, human; details: hygromycin-resistant transfectants
# [7] = target: T2, IMPDH type II (Homo sapiens, UniProt P12268); details: cited from earlier work
# [8] = system: Jurkat T cells; test: Viability (Trypan Blue) of untransfected or mock-transfected Jurkat T cells; type: cell-based, human
# Method: as §1
# (§4) The viability of Jurkat T cells and PBMCs was determined using the Trypan Blue method for counting and calculating the number of live cells. […] Viable cells (unstained cells) and dead cells (blue stained cells) were counted in two diagonally opposite large corner squares of the hemacytometer and the total number of viable cells in the suspension and percentage of viable cells in the population were calculated. The total number of viable cells in the suspension was calculated by multiplying the mean number of cells counted per square by the dilution factor multiplied by 10^4. The percentage of viable cells in the population was calculated by dividing the total number of viable cells per ml by the total number of cells per ml multiplied by 100. […]
# [9] = target: Escherichia coli IMPDH (Escherichia coli, UniProt P0ADG7); details: Farazi et al. 1997; cited from earlier work
# Chain of Escherichia coli IMPDH (P0ADG7 whole entry): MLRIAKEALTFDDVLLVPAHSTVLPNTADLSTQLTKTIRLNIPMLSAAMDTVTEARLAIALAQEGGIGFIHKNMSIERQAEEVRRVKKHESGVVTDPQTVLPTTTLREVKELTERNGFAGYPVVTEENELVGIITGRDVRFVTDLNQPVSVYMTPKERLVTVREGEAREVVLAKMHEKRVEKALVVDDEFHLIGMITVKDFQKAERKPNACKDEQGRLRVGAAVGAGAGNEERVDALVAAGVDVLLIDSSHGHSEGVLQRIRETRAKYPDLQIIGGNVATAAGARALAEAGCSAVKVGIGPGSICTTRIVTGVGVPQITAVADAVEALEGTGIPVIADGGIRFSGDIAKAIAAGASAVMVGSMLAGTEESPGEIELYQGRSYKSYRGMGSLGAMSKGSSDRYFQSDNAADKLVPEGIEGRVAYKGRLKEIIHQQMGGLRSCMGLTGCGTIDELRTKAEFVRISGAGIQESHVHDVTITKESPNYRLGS
# [10] = target: Bacillus subtilis IMPDH (Bacillus subtilis, UniProt P21879); details: Farazi et al. 1997; cited from earlier work
# Chain of Bacillus subtilis IMPDH (P21879 whole entry): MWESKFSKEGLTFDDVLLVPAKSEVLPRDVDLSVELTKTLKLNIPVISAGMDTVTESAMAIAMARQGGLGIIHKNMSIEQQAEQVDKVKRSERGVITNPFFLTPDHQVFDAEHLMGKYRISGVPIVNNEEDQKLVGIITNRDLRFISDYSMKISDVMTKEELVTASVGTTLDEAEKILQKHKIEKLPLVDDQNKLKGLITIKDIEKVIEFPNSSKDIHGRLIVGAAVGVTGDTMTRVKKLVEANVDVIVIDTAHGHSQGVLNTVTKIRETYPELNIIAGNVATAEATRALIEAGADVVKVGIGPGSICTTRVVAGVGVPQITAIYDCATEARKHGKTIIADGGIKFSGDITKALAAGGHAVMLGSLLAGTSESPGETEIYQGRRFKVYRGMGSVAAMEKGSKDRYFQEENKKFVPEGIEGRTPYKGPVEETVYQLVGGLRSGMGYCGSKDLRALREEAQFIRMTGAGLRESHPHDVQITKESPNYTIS
# [11] = target: Tritrichomonas foetus IMPDH (Tritrichomonas foetus, UniProt P50097); details: Farazi et al. 1997; cited from earlier work
# Chain of Tritrichomonas foetus IMPDH (P50097 whole entry): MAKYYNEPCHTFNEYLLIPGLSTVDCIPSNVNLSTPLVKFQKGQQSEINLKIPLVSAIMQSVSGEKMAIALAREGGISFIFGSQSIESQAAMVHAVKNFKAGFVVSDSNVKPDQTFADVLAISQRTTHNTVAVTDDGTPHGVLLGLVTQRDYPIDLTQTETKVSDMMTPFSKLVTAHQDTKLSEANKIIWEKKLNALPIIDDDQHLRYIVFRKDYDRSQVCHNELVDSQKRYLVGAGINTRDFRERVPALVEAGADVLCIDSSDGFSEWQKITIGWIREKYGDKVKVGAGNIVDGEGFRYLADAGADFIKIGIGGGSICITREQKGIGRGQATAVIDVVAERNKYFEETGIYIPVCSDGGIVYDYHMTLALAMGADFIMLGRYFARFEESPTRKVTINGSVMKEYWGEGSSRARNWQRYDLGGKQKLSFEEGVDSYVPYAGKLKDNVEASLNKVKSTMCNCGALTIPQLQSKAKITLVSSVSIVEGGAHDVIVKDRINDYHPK
# [12] = system: Jurkat T cells transfected with plasmid IMPDH(T333I/S351Y)/pMG; test: Proliferation (3H-Tdr incorporation) of Jurkat T cells transfected with IMPDH(T333I/S351Y)/pMG; type: cell-based, human
# [13] = system: OKT3/rhIL-2-activated PBMCs; test: Viability (Trypan Blue) of OKT3/rhIL-2-activated PBMCs; type: cell-based, human; details: MPA 1×10^−7M to 1×10^−4M, 72, 96, 144 hours
# Method: as §3
# as §4, with “10^4.” for “10^4. The percentage of viable cells in the population was calculated by dividing the total number of viable cells per ml by the total number of cells per ml multiplied by 100.”
# [14] = target: type II IMPDH (Homo sapiens, UniProt P12268); details: cited from earlier work; for Ki: product inhibition
# [15] = target: type I IMPDH (Homo sapiens, UniProt P20839); details: cited from earlier work; for Ki: product inhibition
# Chain of type I IMPDH (P20839 whole entry): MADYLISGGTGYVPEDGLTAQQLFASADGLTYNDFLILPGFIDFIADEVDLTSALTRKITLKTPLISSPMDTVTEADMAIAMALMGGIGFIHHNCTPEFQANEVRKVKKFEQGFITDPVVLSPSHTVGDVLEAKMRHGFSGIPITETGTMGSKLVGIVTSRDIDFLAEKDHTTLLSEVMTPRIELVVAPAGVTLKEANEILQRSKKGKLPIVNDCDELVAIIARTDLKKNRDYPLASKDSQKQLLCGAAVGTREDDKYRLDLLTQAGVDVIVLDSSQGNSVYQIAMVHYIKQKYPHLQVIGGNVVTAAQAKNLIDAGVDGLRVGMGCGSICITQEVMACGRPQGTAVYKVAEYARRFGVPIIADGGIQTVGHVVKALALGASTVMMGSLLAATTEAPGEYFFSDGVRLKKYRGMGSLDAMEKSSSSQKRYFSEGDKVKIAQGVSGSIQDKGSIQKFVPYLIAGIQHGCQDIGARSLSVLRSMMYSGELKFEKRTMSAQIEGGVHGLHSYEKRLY
# [16] = target: IMPDH; details: competition for NAD+ cofactor-binding site; Yamada et al. 1989; read-out: Ki against NAD; cited from earlier work
# [17] = system: B cell and T cell proliferation; details: cited from earlier work
# [18] = target: T2, IMPDH type II; details: uncompetitive inhibitor; read-out: Ki against type II; cited from earlier work
# [19] = target: IMPDH type I (Homo sapiens, UniProt P20839); details: uncompetitive inhibitor; read-out: Ki against type I; cited from earlier work
# Chain of IMPDH type I (P20839 whole entry): as above
# [20] = human DHODH, read-out: Ki, uncompetitive with respect to dihydroorotate
# [21] = Jurkat, MPA 1×10^−7M to 1×10^−4M, 72, 96, 144 hours
compound,measurement,setting,value
O=C1C(O)=C([C@H]2CC[C@H](c3ccc(Cl)cc3)CC2)C(=O)c2ccccc21 [Atovaquone],Ki,[1]; [20],11.5 µM
"Cc1nc2c(n1-c1ccc(Br)cc1)C(=O)c1ccccc1C2=O [BNID, 1-(p-bromophenyl)-2-methyl 1H-napth(2,3-d)-imidazole-4,9-dione]",Ki,[2],0.53 µM
"O=C1C(O)=C(CC=C(Cl)Cl)C(=O)c2ccccc21 [DCL, dichloroallyl lawsone]",Ki,"[1]; human DHODH, read-out: Ki, competitive with respect to ubiquinone",0.0098 µM
same,Ki,[1]; [20],0.038 µM
"COc1c(C)c2c(c(O)c1C/C=C(\C)CCC(=O)OCCN1CCOCC1)C(=O)OC2 [MMF, Mycophenolate mofetil]",therapeutically relevant blood trough levels,[3],1 to 5 µg/mL
"COc1c(C)c2c(c(O)c1C/C=C(\C)CCC(=O)O)C(=O)OC2 [MPA, Mycophenolic acid]",proliferation vs. absence of MPA,[4]; [21],significantly reduced
same,proliferation in presence of mycophenolic acid,"[4]; control Jurkat, MPA 1×10^−6M to 2×10^−5M",essentially completely inhibited
same,proliferation in medium containing mycophenolic acid,"[4]; mock-transfected Jurkat, MPA 2×10^−7M to 2×10^−5M",did not proliferate
same,"3H-Tdr incorporation, % of media control","[4]; mock-transfected Jurkat, mycophenolic acid 2×10^−7 M and greater",less than 3%
same,proliferation vs. absence of MPA,[5],"significantly reduced by MPA at all concentrations, except the lowest concentration"
same,viability at day 21 post-transfer compared to day 0,[6]; higher concentrations of mycophenolic acid,somewhat less viable
same,viability at day 21 post-transfer,[6]; lower concentrations of mycophenolic acid,more viable at day 21 post-transfer than those cultured in medium containing higher concentrations of mycophenolic acid
same,higher binding affinity for human IMPDH type II over human IMPDH type I,[7],approximately 5 fold
same,viability vs. absence of MPA,[8]; [21],significantly reduced
same,viable cells in medium containing mycophenolic acid,"[8]; mock-transfected Jurkat, by 36 days",no viable cells were detected
same,Ki,[9],20 µM
same,Ki,[10],0.5 µM
same,Ki,[11],14 µM
same,maximum 3H-Tdr incorporation maintained,"[12]; five of the ten MPA-resistant clones, MPA 1×10^−6M or less",greater than 50%
same,"proliferation, % of the maximum proliferation in the absence of MPA","[12]; hygromycin-resistant transfectants, 2×10^−6M to 2×10^−7M MPA",20-92%
same,transfectant cells demonstrating proliferation,"[12]; limiting dilution in 3×10^−6 M mycophenolic acid, 21 days after transfection, 10^4 cells per well",Approximately 10%
same,viability vs. absence of MPA,[13],"significantly reduced by MPA at all concentrations, except the lowest concentration"
NC(=O)C1=CN([C@@H]2O[C@H](COP(=O)(O)OP(=O)(O)OC[C@H]3O[C@@H](n4cnc5c(N)ncnc54)[C@H](O)[C@@H]3O)[C@@H](O)[C@H]2O)C=CC1 [NADH],Ki,[14],~90 µM
same,Ki,[15],~102 µM
NC(=O)c1ccc[n+]([C@@H]2O[C@H](COP(=O)([O-])OP(=O)(O)OC[C@H]3O[C@@H](n4cnc5c(N)ncnc54)[C@H](O)[C@@H]3O)[C@@H](O)[C@H]2O)c1 [NAD],Km,[14]; substrate/cofactor,~32 µM
same,Km,[15]; substrate/cofactor,~46 µM
CC(=O)N1CCc2c([nH]c3ccc(Br)cc23)C1c1ccccc1 (stereo not shown) [NSC 665564],IC50 compared with Brequinar,[2],comparable IC50 to Brequinar
same,Ki compared with Brequinar,[2],lower Ki
O=C(O)c1cc(=O)[nH]c(=O)[nH]1 [Orotate],Ki,"[1]; competitive with respect to dihydroorotate, read-out: Kis (slope inhibition constant)",22 ± 3 µM
same,Ki,"[1]; uncompetitive with respect to quinone, read-out: Kij (intercept inhibition constant)",60 ± 10 µM
COc1cc(-c2ccc(Nc3ccccc3C(=O)O)c(OC)c2)ccc1Nc1ccccc1C(=O)O [Redoxal],Ki,"[1]; non-competitive for dihydroorotate and ubiquinone, read-out: apparent Ki",0.33 µM
"NC(=O)c1csc(C2O[C@@H](COP(=O)(O)OP(=O)(O)OC[C@H]3OC(n4cnc5c(N)ncnc54)[C@H](O)[C@@H]3O)[C@H](O)[C@@H]2O)n1 (stereo partly shown) [TAD, thiazole-4-carboxamide adenine dinucleotide]",Ki,[16],0.075 µM
COc1cc(NC(=O)Nc2cccc(CNC(=O)O[C@H]3CCOC3)c2)ccc1-c1cnco1 [VX-497],IC50,[17],~0.1 µM
same,Ki,[18],0.01 µM
same,Ki,[19],0.007 µM
CCCCCCCCCCC1=C(C)C(=O)C(OC)=C(OC)C1=O [decylubiqunone],Km,[1]; human DHODH,~13.7 µM
O=C1CC(C(=O)O)NC(=O)N1 (stereo not shown) [dihydroorotate],Km,[1]; human DHODH,~9.4 µM
COC1=C(OC)C(=O)C(C/C=C(\C)CC/C=C(\C)CC/C=C(\C)CC/C=C(\C)CC/C=C(\C)CC/C=C(\C)CC/C=C(\C)CC/C=C(\C)CC/C=C(\C)CCC=C(C)C)=C(C)C1=O [ubiquinone],Km,[1]; human DHODH,~110 µM
xanthine monophosphate [XMP],Ki,[14],~94 µM
same,Ki,[15],~80 µM
